Experimental data from PubChem BioAssay (NCI).
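Test compounds were applied to cells in 96-well plates for 48 hours at 5 doses. TGI marks complete inhibition of growth.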 Where a SMILES comes first, the peptide text is derived from it. [ ]: non-standard residue; d: D form. pGlu = O=C1CC[CH](C(=O)O)N1; Thz = O=C(O)[CH]1CSCN1

Legend:
Assay in all cases: growth of human tumour cells (NCI), 48 h
[1] = test system: NCI-H460 lung
[2] = test system: NCI-H226 lung
[3] = test system: KM12 colon
[4] = test system: SNB-19 CNS
[5] = test system: MDA-MB-435
[6] = test system: MCF7 breast
[7] = test system: HS 578T breast
[8] = test system: MDA-MB-231 breast
[9] = test system: MDA-N
[10] = test system: A498 renal
[11] = test system: SN12C renal
[12] = test system: SF-295 CNS
[13] = test system: SW-620 colon
[14] = test system: SNB-75 CNS
[15] = test system: DU-145 prostate
[16] = test system: OVCAR-3 ovarian
[17] = test system: OVCAR-8 ovarian
[18] = test system: OVCAR-5 ovarian
[19] = test system: SK-MEL-5 melanoma
[20] = test system: M14 melanoma
[21] = test system: HCT-15 colon
[22] = test system: HOP-62 NSCLC
[23] = test system: SR leukemia
[24] = test system: NCI-H522 lung
[25] = test system: MALME-3M melanoma
[26] = test system: CCRF-CEM leukemia
[27] = test system: TK-10 renal
[28] = test system: CAKI-1 renal
[29] = test system: UACC-62 melanoma
[30] = test system: ACHN renal
[31] = test system: RPMI-8226 leukemia
[32] = test system: SK-MEL-2 melanoma
[33] = test system: UACC-257 melanoma
[34] = test system: NCI/ADR-RES ovarian
[35] = test system: HT29 colon
[36] = test system: SF-539 CNS
[37] = test system: HCC-2998 colon
[38] = test system: MOLT-4 leukemia
[39] = test system: SK-MEL-28 melanoma
[40] = test system: A549 NSCLC
[41] = test system: SK-OV-3 ovarian
[42] = test system: UO-31 renal
[43] = test system: NCI-H23 lung
[44] = test system: 786-0 renal
[45] = test system: IGROV1 ovarian
[46] = test system: K-562 leukemia
[47] = test system: SF-268 CNS
[48] = test system: LOX IMVI melanoma
[49] = test system: T-47D breast
[50] = test system: BT-549 breast
[51] = test system: RXF 393 renal
[52] = test system: PC-3 prostate
[53] = test system: HL-60(TB) leukemia
[54] = test system: HOP-92 NSCLC
[55] = test system: OVCAR-4 ovarian
[56] = test system: U251 CNS
[57] = test system: EKVX NSCLC
[58] = test system: COLO 205 colon

O=C1CCC(C(=O)N2CSCC2C(=O)O)N1 (stereo not given) ([pGlu]-[Thz]-OH; configuration not given here)
TGI [1]: > 100 µM
TGI [2]: > 100 µM
TGI [3]: > 100 µM
TGI [4]: > 100 µM
TGI [5]: > 100 µM
TGI [6]: > 100 µM
TGI [7]: > 100 µM
TGI [8]: > 100 µM
TGI [9]: > 100 µM
TGI [10]: > 100 µM
TGI [11]: > 100 µM
TGI [12]: > 100 µM
TGI [13]: > 100 µM
TGI [14]: > 100 µM
TGI [15]: > 100 µM
TGI [16]: > 100 µM
TGI [17]: > 100 µM
TGI [18]: > 100 µM
TGI [19]: > 100 µM
TGI [20]: > 100 µM
TGI [21]: > 100 µM
TGI [22]: > 100 µM
TGI [23]: > 100 µM
TGI [24]: > 100 µM
TGI [25]: > 100 µM
TGI [26]: > 100 µM
TGI [27]: > 100 µM
TGI [28]: > 100 µM
TGI [29]: > 100 µM
TGI [30]: > 100 µM
TGI [31]: > 100 µM
TGI [32]: > 100 µM
TGI [33]: > 100 µM
TGI [34]: > 100 µM
TGI [35]: > 100 µM
TGI [36]: > 100 µM
TGI [37]: > 100 µM
TGI [38]: > 100 µM
TGI [39]: > 100 µM
TGI [40]: > 100 µM
TGI [41]: > 100 µM
TGI [42]: > 100 µM
TGI [43]: > 100 µM
TGI [44]: > 100 µM
TGI [45]: > 100 µM
TGI [46]: > 100 µM
TGI [47]: > 100 µM
TGI [48]: > 100 µM
TGI [49]: > 100 µM
TGI [50]: > 100 µM
TGI [51]: > 100 µM
TGI [52]: > 100 µM
TGI [53]: > 100 µM

COc1ccc(C2CC(c3c(O)ccc4ccccc34)=NN2)cc1OC (stereo not given)
TGI [54]: 24.7 µM
TGI [1]: 8.24 µM
TGI [2]: 14.6 µM
TGI [3]: 11.4 µM
TGI [4]: 6.34 µM
TGI [5]: 11.6 µM
TGI [6]: 34.5 µM
TGI [7]: 7.43 µM
TGI [8]: 53.4 µM
TGI [9]: 22.8 µM
TGI [10]: 43.6 µM
TGI [11]: 32.2 µM
TGI [55]: 20.8 µM
TGI [12]: 17.6 µM
TGI [14]: 12.2 µM
TGI [15]: 36.1 µM
TGI [16]: 20.6 µM
TGI [17]: 17.8 µM
TGI [18]: 18.2 µM
TGI [19]: 12.6 µM
TGI [20]: 17.3 µM
TGI [21]: 18.6 µM
TGI [22]: 17.5 µM
TGI [24]: 8.58 µM
TGI [25]: 16.3 µM
TGI [56]: 11 µM
TGI [26]: > 100 µM
TGI [27]: 14.4 µM
TGI [57]: 22.1 µM
TGI [28]: 58.4 µM
TGI [58]: 46.5 µM
TGI [29]: 13.6 µM
TGI [30]: 4.82 µM
TGI [31]: 65 µM
TGI [32]: 30.9 µM
TGI [33]: 20.4 µM
TGI [34]: 9.77 µM
TGI [35]: 4.98 µM
TGI [36]: 18.4 µM
TGI [37]: 6.15 µM
TGI [38]: 5.44 µM
TGI [41]: 28.8 µM
TGI [42]: 5.7 µM
TGI [43]: 13.8 µM
TGI [45]: 20.1 µM
TGI [46]: > 100 µM
TGI [47]: 11.5 µM
TGI [49]: 58.2 µM
TGI [50]: 16.1 µM
TGI [51]: 24.6 µM
TGI [52]: > 100 µM
TGI [53]: 63.5 µM
